According to ChEMBL document CHEMBL1201862, “PubChem BioAssay data set” (2004):
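Cultured in 96-well plates, cells were exposed to test compound for 48 hours across five concentrations. GI50: concentration for 50% inhibition of growth.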 Activity calls are given as the source filed them. Rule as the data show it: active = GI50 up to about 1.1 µM and inactive = higher.

Legend:
Test in all cases: DTP human tumour cell line panel, 48 h
786-0 = test system: 786-0
SNB-75 = test system: SNB-75
TK-10 = test system: TK-10
SW-620 = test system: SW-620
HL-60 = test system: HL-60
SK-OV-3 = test system: SK-OV-3
MOLT-4 = test system: MOLT-4
M14 = test system: M14
OVCAR-4 = test system: OVCAR-4
UACC-62 = test system: UACC-62
CCRF-CEM = test system: CCRF-CEM
HOP-92 = test system: HOP-92
RPMI-8226 = test system: RPMI-8226
EKVX = test system: EKVX
SK-MEL-2 = test system: SK-MEL-2
HCC 2998 = test system: HCC 2998
A498 = test system: A498
SF-539 = test system: SF-539
NCI-H226 = test system: NCI-H226

Structure (SMILES)	GI50 (786-0)	GI50 (SNB-75)	GI50 (TK-10)	GI50 (SW-620)	GI50 (HL-60)	GI50 (SK-OV-3)	GI50 (MOLT-4)	GI50 (M14)	GI50 (OVCAR-4)	GI50 (UACC-62)	GI50 (CCRF-CEM)	GI50 (HOP-92)	GI50 (RPMI-8226)	GI50 (EKVX)	GI50 (SK-MEL-2)	GI50 (HCC 2998)	GI50 (A498)	GI50 (SF-539)	GI50 (NCI-H226)
COc1ccc(C2=C(Cl)c3cc(OC)c(OC)cc3C2Cl)cc1OC (stereo unspecified)	19.1 µM (inactive)	13.6 µM (inactive)	19.4 µM (inactive)	15.2 µM (inactive)	13.7 µM (inactive)	32.1 µM (inactive)	3.82 µM (inactive)	17.7 µM (inactive)	18.2 µM (inactive)	15.4 µM (inactive)	4.32 µM (inactive)	24.8 µM (inactive)	10.2 µM (inactive)	22.2 µM (inactive)	–	–	–	–	–
CC(=O)N1c2ccccc2C2=CC3C4C(=O)N(c5ccccc5)C(=O)C4C21C1C(=O)N(c2ccccc2)C(=O)C31 (stereo unspecified)	37.2 µM (inactive)	31.1 µM (inactive)	> 100 µM (inactive)	31.2 µM (inactive)	20.7 µM (inactive)	23.1 µM (inactive)	30.8 µM (inactive)	–	–	30.6 µM (inactive)	16.2 µM (inactive)	> 100 µM (inactive)	–	–	17.3 µM (inactive)	20.7 µM (inactive)	74.5 µM (inactive)	2.61 µM (inactive)	–
COc1cc(CNc2nc3ccc(C(F)(F)F)cc3nc2-c2ccccc2)cc(OC)c1OC	28.3 µM (inactive)	8.38 µM (inactive)	27.1 µM (inactive)	21 µM (inactive)	5.55 µM (inactive)	7.18 µM (inactive)	4.4 µM (inactive)	40 µM (inactive)	19.4 µM (inactive)	93.1 µM (inactive)	15.3 µM (inactive)	–	6.11 µM (inactive)	11.9 µM (inactive)	20.9 µM (inactive)	38.8 µM (inactive)	38.2 µM (inactive)	46.7 µM (inactive)	–
NC(=O)CN(CC(N)=O)C(N)=O	> 100 µM (inactive)	23 µM (inactive)	> 100 µM (inactive)	> 100 µM (inactive)	> 100 µM (inactive)	> 100 µM (inactive)	> 100 µM (inactive)	> 100 µM (inactive)	> 100 µM (inactive)	> 100 µM (inactive)	> 100 µM (inactive)	> 100 µM (inactive)	> 100 µM (inactive)	> 100 µM (inactive)	> 100 µM (inactive)	–	> 100 µM (inactive)	> 100 µM (inactive)	> 100 µM (inactive)
COc1cc(Br)c(C2OCCCO2)cc1OCc1ccccc1	> 100 µM (inactive)	> 100 µM (inactive)	> 100 µM (inactive)	> 100 µM (inactive)	38.5 µM (inactive)	> 100 µM (inactive)	41.6 µM (inactive)	67.9 µM (inactive)	69.5 µM (inactive)	73.5 µM (inactive)	94.2 µM (inactive)	9.86 µM (inactive)	52.8 µM (inactive)	> 100 µM (inactive)	> 100 µM (inactive)	–	> 100 µM (inactive)	73.1 µM (inactive)	17.5 µM (inactive)
O=C(c1ccco1)N(C(=S)N1CCN(c2ccccn2)CC1)C1CCCCC1	> 100 µM (inactive)	> 100 µM (inactive)	> 100 µM (inactive)	> 100 µM (inactive)	> 100 µM (inactive)	> 100 µM (inactive)	83.4 µM (inactive)	> 100 µM (inactive)	> 100 µM (inactive)	> 100 µM (inactive)	> 100 µM (inactive)	> 100 µM (inactive)	> 100 µM (inactive)	–	> 100 µM (inactive)	–	–	> 100 µM (inactive)	> 100 µM (inactive)
CNC(=O)N(CCCCC(NC(C)=O)C(=O)NCc1ccccc1)Cc1ccccc1 (stereo unspecified)	> 100 µM (inactive)	> 100 µM (inactive)	> 100 µM (inactive)	> 100 µM (inactive)	–	> 100 µM (inactive)	> 100 µM (inactive)	> 100 µM (inactive)	> 100 µM (inactive)	> 100 µM (inactive)	> 100 µM (inactive)	> 100 µM (inactive)	> 100 µM (inactive)	> 100 µM (inactive)	> 100 µM (inactive)	> 100 µM (inactive)	> 100 µM (inactive)	> 100 µM (inactive)	> 100 µM (inactive)
CCOC(=O)CC(=O)C(=O)NN=C1NCCCN1	> 100 µM (inactive)	> 100 µM (inactive)	> 100 µM (inactive)	> 100 µM (inactive)	> 100 µM (inactive)	> 100 µM (inactive)	> 100 µM (inactive)	> 100 µM (inactive)	> 100 µM (inactive)	> 100 µM (inactive)	> 100 µM (inactive)	> 100 µM (inactive)	> 100 µM (inactive)	> 100 µM (inactive)	> 100 µM (inactive)	> 100 µM (inactive)	–	> 100 µM (inactive)	> 100 µM (inactive)
COc1ccc(/C=C2\C(=O)N(C)C(=O)c3cc(OC)c(OC)cc32)cc1OC	43.5 µM (inactive)	–	43.1 µM (inactive)	36.6 µM (inactive)	14.5 µM (inactive)	–	52.1 µM (inactive)	65.2 µM (inactive)	38.9 µM (inactive)	26.9 µM (inactive)	20.2 µM (inactive)	23.4 µM (inactive)	27.7 µM (inactive)	10.7 µM (inactive)	35.6 µM (inactive)	> 100 µM (inactive)	27.4 µM (inactive)	34.9 µM (inactive)	12.9 µM (inactive)
COc1ccc(/C=C/C(=O)c2sc(NC(=S)NC(=O)c3ccc(Cl)cc3)nc2C)cc1OC	83.8 µM (inactive)	–	> 100 µM (inactive)	55.7 µM (inactive)	30.3 µM (inactive)	> 100 µM (inactive)	27.2 µM (inactive)	52.6 µM (inactive)	52.5 µM (inactive)	18.4 µM (inactive)	26.2 µM (inactive)	–	24 µM (inactive)	66.8 µM (inactive)	47.1 µM (inactive)	> 100 µM (inactive)	–	60.4 µM (inactive)	37.2 µM (inactive)
COc1cc(NS(C)(=O)=O)ccc1NCc1c2ccccc2nc2ccccc12	40.6 µM (inactive)	> 100 µM (inactive)	> 100 µM (inactive)	26.7 µM (inactive)	13.5 µM (inactive)	> 100 µM (inactive)	3.27 µM (inactive)	52.6 µM (inactive)	0.0571 µM (active)	> 100 µM (inactive)	4.18 µM (inactive)	17.3 µM (inactive)	22.5 µM (inactive)	42.6 µM (inactive)	44.4 µM (inactive)	40.6 µM (inactive)	–	24.3 µM (inactive)	> 100 µM (inactive)
O=C1N/C(=C\[N+](=O)[O-])c2ccccc21	> 100 µM (inactive)	25.9 µM (inactive)	> 100 µM (inactive)	> 100 µM (inactive)	> 100 µM (inactive)	> 100 µM (inactive)	> 100 µM (inactive)	> 100 µM (inactive)	> 100 µM (inactive)	> 100 µM (inactive)	> 100 µM (inactive)	> 100 µM (inactive)	> 100 µM (inactive)	> 100 µM (inactive)	–	> 100 µM (inactive)	> 100 µM (inactive)	> 100 µM (inactive)	> 100 µM (inactive)
CCCN(CCCCC(NC(C)=O)C(=O)NCc1ccccc1)C(=O)NCCCl (stereo unspecified)	> 100 µM (inactive)	> 100 µM (inactive)	> 100 µM (inactive)	> 100 µM (inactive)	> 100 µM (inactive)	–	> 100 µM (inactive)	> 100 µM (inactive)	> 100 µM (inactive)	> 100 µM (inactive)	> 100 µM (inactive)	> 100 µM (inactive)	> 100 µM (inactive)	> 100 µM (inactive)	–	> 100 µM (inactive)	–	> 100 µM (inactive)	> 100 µM (inactive)
COc1cc2cc3c4c(cc(OC)c(OC)c4c2cc1OC)CCN3C(=O)CCC(=O)NCCCN(C)C	78 µM (inactive)	10.3 µM (inactive)	> 100 µM (inactive)	54 µM (inactive)	21.7 µM (inactive)	46.2 µM (inactive)	58.9 µM (inactive)	17.6 µM (inactive)	> 100 µM (inactive)	47.6 µM (inactive)	29.2 µM (inactive)	10 µM (inactive)	38.5 µM (inactive)	72.1 µM (inactive)	20.1 µM (inactive)	> 100 µM (inactive)	–	18.8 µM (inactive)	66.8 µM (inactive)
CC(=O)O[C@H]1CCC2[C@@H]3CCC4Nc5c(cnn5-c5ccccc5)C[C@]4(C)C3CC[C@@]21C (stereo partly specified)	8.49 µM (inactive)	4.01 µM (inactive)	19.2 µM (inactive)	11.9 µM (inactive)	7.64 µM (inactive)	18.7 µM (inactive)	6.93 µM (inactive)	14.4 µM (inactive)	21.4 µM (inactive)	10.4 µM (inactive)	7.08 µM (inactive)	–	4.2 µM (inactive)	3.3 µM (inactive)	17.1 µM (inactive)	9.55 µM (inactive)	30.5 µM (inactive)	17.5 µM (inactive)	11.5 µM (inactive)
CCc1ccccc1-n1c2nc(=O)n(C)c(=O)c-2nc2ccccc21	7.21 µM (inactive)	14.2 µM (inactive)	8.95 µM (inactive)	13.8 µM (inactive)	–	40.2 µM (inactive)	13.2 µM (inactive)	6.59 µM (inactive)	4.89 µM (inactive)	2.2 µM (inactive)	11.2 µM (inactive)	–	12.6 µM (inactive)	12.1 µM (inactive)	17.4 µM (inactive)	11.1 µM (inactive)	15.9 µM (inactive)	14.1 µM (inactive)	18.4 µM (inactive)
